Laboratory results published in patent publication US5912164A, “Stereoselective hydrolysis of chiral carboxylic acid esters using esterase from ophiostoma or ceratocystis” (Laboratorios Menarini S.A., priority 1993, dated 1999).

Key:
[1] = system: AJ3 crude enzyme solution (esterase); assay: Hydrolysis of racemic ketoprofen esters in 2-phase biotransformations; assay type: biochemical, Ophiostoma novo-ulmi; conditions: ester 20 g/l in cyclohexane, 24 hours, 25° C.
Experimental: Various esters of racemic ketoprofen were dissolved in cyclohexane to a concentration of 20 g/l. The esters used were methyl, ethyl, n-propyl, n-butyl, n-pentyl, n-hexyl. In the case of methyl ester, a suspension was prepared due to low solubility of ester in cyclohexane.
To 5 ml aliquots of crude enzyme solution in glass vials was added 2 ml of each of the six racemic ketoprofen ester solutions above. […] Reactions were conducted with shaking for 24 hours at 25° C.

[2] = system: cloned AJ3 esterase in recombinant E. coli CS62 lysate; assay: Hydrolysis of racemic butyrate ester of 2-methoxycyclohexanol by lysate of CS62; assay type: biochemical, Ophiostoma novo-ulmi; conditions: 41 hours, 25° C., pH 8.0
Experimental: Cells (grown as per Example 7) were resuspended at 5% w/v in 100 mM TRIS, pH 8, and lysed by sonication for 15 minutes (10 seconds on, 10 seconds off cycle) at an amplitude of 20 μm in a Soniprep 150. The lysate was centrifuged to remove cell debris and the supernatant used in biotransformation.
10 g of the racemic butyrate ester of 2-methoxycyclo-hexanol was mixed with 100 ml of 100 mm TRIS, pH 8, by magnetic stirring. 20 ml of the above lysate of CS62 was added. The temperature of the biotransformation was controlled at 25° C. and the pH at 8.0 by the addition of 1M NaOH. Samples were removed and monitored for 2-methoxycyclohexanol formation. NaCl was added to saturation to 1 ml sample which was then extracted into 1 ×5 volumes of toluene. The toluene layer was removed and dried by the addition of MgSO4. The sample was then analysed by GC. A 15 m DB-5 column with 0.25 μm film was used with helium as the carrier, at 55.2 kPa, the oven temperature was 60° C. for 1 minute, raised at 10° C./min to 150° C., and this temperature was then held for a further minute.
The ee of the 2-methoxycyclohexanol formed was determined following derivatisation with trifluoroacetic anhydride (TFAA). 20 μl of TFAA was added to 1 ml of the toluene-extracted sample which was then allowed to stand at ambient temperature for 30 minutes. […]

[3] = system: Cells of AJ3; assay: Whole-broth biotransformation of racemic ethyl ketoprofen by growing cells of AJ3; assay type: cell-based, Ophiostoma novo-ulmi; conditions: 20 g/l ester in broth, 120 hours
Experimental: This was shaken for 30 hours at 23° C. and then 2.5 ml transferred into a second 250 ml baffled flask containing 30 ml of the same medium as in Example 1. Following growth for 40 hours, at 23° C. with shaking, racemic ethyl ketoprofen was added to the broth to a concentration of 20 g/l.

[4] = system: cloned AJ3 esterase in recombinant E. coli CS62 lysate; assay: Hydrolysis of racemic ethyl naproxen by cell-free lysate of recombinant strain CS62; assay type: biochemical, Ophiostoma novo-ulmi; conditions: 1 hour, 25° C.
Experimental: Cells of CS62 grown and stored as described above were used to provide enzyme for use in the hydrolysis of ethyl naproxen. Cells were resuspended at 10% w/v in 0.1M sodium carbonate, pH 10, and lysed by sonication for 10 minutes (10 seconds on, 10 seconds off cycles) at 4° C. The enzyme lysate was then centrifuged to obtain a cell-free supernatant solution.
Racemic ethyl naproxen was dissolved in cyclohexane to a concentration of 100 g/l. 200 μl of this solution was added to 1 ml enzyme solution and shaken for 1 hour at 25° C. The phases were then separated and the aqueous phase analysed (by reverse phase HPLC) for naproxen accumulation.

[5] = system: esterase of AJ3 (Ophiostoma novo-ulmi), crude enzyme solution; assay: Hydrolysis of racemic ethyl naproxen in cyclohexane by crude enzyme lysate of AJ3; assay type: biochemical; conditions: 72 hours, 23° C.
Experimental: This culture was grown with shaking at 30° C. for 48 hours. 10 ml was then transferred into 90 ml fresh medium in a 1 liter shake flask and grown for a further 8 hours at 30° C. with shaking. This flask was used to inoculate a 2.8 1 laboratory fermenter with 1.5 1 medium plus 5 g/l glucose and 0.5 ml/l of a silicone/PPG-based antifoam (XF0371, Ivanhoe Chemicals, Ill., U.S.A.). This fermenter was operated for 48 hours with agitation and aeration, controlled to maintain a DOT >50% air saturation and temperature and pH at 30° C. and 6.0 respectively.
At the completion of the fermentation the cells were harvested by centrifugation and the pellet resuspended at 10% w/v (based on wet cell weight) in lysis buffer, i.e. 0.1M sodium carbonate in 5% Triton X-100 aqueous solution. Lysis was carried out overnight at 8° C. with shaking after which the enzyme activity-containing lysate was separated from the cell debris by centrifugation. The lysate was then diluted 50% in lysis buffer, prior to its being used to carry out resolution.
Racemic ethyl naproxen (ethyl 6-methoxy-α-methyl-2-naphthaleneacetate) was dissolved in cyclohexane to a concentration of 19 mg/ml. 2 ml of this solution was then mixed with 5 ml of prepared crude enzyme solution in a glass vial and reacted with shaking for 72 hours at 23° C.

[6] = Screen of 12 commercially-available lipase/esterase preparations on the butyrate ester; assay type: biochemical; conditions: racemic butyrate ester of 2-methoxycyclohexanol as substrate
Description: The stereo-specific activity of this biocatalyst is considered unusual. […] This is potentially advantageous in that it enables access to the (S)-enantiomer as the alcohol without having to exceed 50% conversion.

COC(=O)C(C)c1cccc(C(=O)c2ccccc2)c1 (racemic) [METHYL]
ACID PRODUCED [1]: 1.7 mg/mL | CONVERSION [1]: 42.3% | EE (%)(S)-enantiomer [1]: 90%

CCCC(=O)OC1CCCCC1OC (racemic) [butyrate ester of 2-methoxycyclo-hexanol]
conversion of the substrate [2]: 44% | ee of the 2-methoxycyclohexanol in favour of the (S)-enantiomer [2]: 96%

CCOC(=O)C(C)c1cccc(C(=O)c2ccccc2)c1 (racemic) [ethyl ketoprofen]
enantiomeric excess of ketoprofen acid formed, in favour of the (S)-enantiomer [3]: 96% | hydrolysis of the added ester ([3]; HPLC): 18.2%

CCOC(=O)C(C)c1ccc2cc(OC)ccc2c1 (racemic) [ethyl naproxen, ethyl 6-methoxy-α-methyl-2-naphthaleneacetate]
CONVERSION [4]: about 26% | ee in favour of the S-enantiomer [4]: > 95% | naproxen accumulated in aqueous phase ([4]; ester 100 g/l in cyclohexane, 200 μl + 1 ml enzyme): 5.3 g/L | enantiomeric purity of naproxen, (S) enantiomer (equivalent to the ee) [5]: 96.5% | ee (enantiomeric excess) of naproxen in favour of the (S) enantiomer ([5]; HPLC): 93% | CONVERSION ([5]; cyclohexane 2-phase): about 40% | accumulation of naproxen in aqueous phase ([5]; ester 19 mg/ml in cyclohexane, 2 ml + 5 ml crude enzyme): 2.76 mg/mL

CCCCOC(=O)C(C)c1cccc(C(=O)c2ccccc2)c1 (racemic) [n-BUTYL]
ACID PRODUCED [1]: 0.3 mg/mL | CONVERSION [1]: 8.0%

CCCCCCOC(=O)C(C)c1cccc(C(=O)c2ccccc2)c1 (racemic) [n-HEXYL]
ACID PRODUCED [1]: 0.09 mg/mL | CONVERSION [1]: 2.3%

CCCCCOC(=O)C(C)c1cccc(C(=O)c2ccccc2)c1 (racemic) [n-PENTYL]
ACID PRODUCED [1]: 0.18 mg/mL | CONVERSION [1]: 4.4%

CCCOC(=O)C(C)c1cccc(C(=O)c2ccccc2)c1 (racemic) [n-PROPYL]
ACID PRODUCED [1]: 1.0 mg/mL | CONVERSION [1]: 25.6% | EE (%)(S)-enantiomer [1]: 86%

B1: porcine pancreatic lipase: commercially-available lipase/esterase preparation (protein, UniProt P00591 1-450, looked up)
Pancreatic triacylglycerol …: SEVCFPRLGCFSDDAPWAGIVQRPLKILPWSPKDVDTRFLLYTNQNQNNYQELVADPSTITNSNFRMDRKTRFIIHGFIDKGEEDWLSNICKNLFKVESVNCICVDWKGGSRTGYTQASQNIRIVGAEVAYFVEVLKSSLGYSPSNVHVIGHSLGSHAAGEAGRRTNGTIERITGLDPAEPCFQGTPELVRLDPSDAKFVDVIHTDAAPIIPNLGFGMSQTVGHLDFFPNGGKQMPGCQKNILSQIVDIDGIWEGTRDFVACNHLRSYKYYADSILNPDGFAGFPCDSYNVFTANKCFPCPSEGCPQMGHYADRFPGKTNGVSQVFYLNTGDASNFARWRYKVSVTLSGKKVTGHILVSLFGNEGNSRQYEIYKGTLQPDNTHSDEFDSDVEVGDLQKVKFIWYNNNVINPTLPRVGASKITVERNDGKVYDFCSQETVREEVLLTLNPC
stereo-specificity of hydrolysis [6]: specificity for the (R)-enantiomer
